Like-named read-outs stand apart in the source and are kept apart here.
Legend:
[1] = biological target: T1, Human prostatic acid phosphatase (obtained commercially) (Homo sapiens, UniProt P15309); test: biochemical; conditions: for inhibition at 10000 µM: compound at 10 mM, read-out: % change of activity; for inhibition at 10000 µM / % change of activity: 0.1 mM PNPP, 100 mM acetate pH 5, 30°; for % change of activity: compound at 10 μM
T1 construct: purchased Sigma; host or cells: human semen
Protocol: (§1) Human placental alkaline phosphatase and prostatic phosphatase were obtained commercially. Alkaline phosphatase was assayed in a reaction mixture containing 50 mM glycine NaOH, pH 10, MgCl2 and 1 mM PNPP; prostatic acid phosphatase was assayed in a reaction mixture containing 100 mM acetate, pH 5, 0.1 mM PNPP, and purified phosphotyrosyl protein phosphatase was assayed in 100 mM acetate, pH 5, 0.8 mM PNPP, 0.2 mg/ml BSA and 5 mM DTT. All assays were performed at 30°.
(§2) p-Nitrophenylphosphatase activity was determined in a final volume of […] containing 100 mM acetate, pH 5, 5 mM DTT, 2.5 mg/ml BSA and 1 mM PNPP. The reaction was carried out at 30° C. and terminated with 0.5 ml of 0.2N NaOH. Alkaline PNPP phosphatase activity was similarly determined except that 50 mM glycine NaOH, pH 10, was used as buffer and 10 mM MgCl2 was included in the reaction mixture. Absorption at 410 nm wavelength was recorded on a Gilson spectrophotometer. Units of phosphatase activity were calculated with a millimolar extinction coefficient of 17.5 for p-nitrophenol at 410 nm and pH 11.

[2] = biological target: T2, Human placental alkaline phosphatase (obtained commercially) (Homo sapiens, UniProt P05187); test: biochemical; conditions: for inhibition at 10000 µM: compound at 10 mM, read-out: % change of activity; for inhibition at 10000 µM / % change of activity: 1 mM PNPP, glycine NaOH pH 10, MgCl2, 30°; for % change of activity: compound at 10 μM
T2 construct: purchased Worthington Biochem; host or cells: human placenta
Protocol: as §1, §2

[3] = system: Purified phosphotyrosyl protein phosphatase from human placental membranes; type: biochemical
Protocol: as §1, §2

[4] = system: Purified phosphotyrosyl protein phosphatase from human placental membranes; type: biochemical; remark: listed apart in the source
Protocol: Phosphotyrosine phosphatase activity was measured by the release of ^32 Pi from ^32 P-Tyr-angiotensin II in a […] reaction mixture containing 0.1M acetate, pH 5, 5 mM DTT, 2.5 mg/ml BSA and 0.05 mM ^32 Pi of ^32 P-Tyr-angiotensin II. After incubation at 30° for 30 minutes, the reaction was terminated by the addition of […] of 10% TCA. 0.2 ml of 1.25 mM KH2 PO4 in 1N H2 SO4 was added as carrier. 0.1 ml of 5% ammonium molybdate was then added. After extraction with 0.5 ml of 1:1 isobutanol:benzene, 0.25 ml of the upper phase was taken and mixed with 10 ml Aquasol II to be counted in a packard scintillation counter.

[5] = compound at 10 mM, 0.8 mM PNPP, 100 mM acetate pH 5, 0.2 mg/ml BSA, 5 mM DTT, 30°
[6] = pH 5, read-out: % change of activity
[7] = pH 10, read-out: % change of activity
[8] = compound at 10 μM, 0.8 mM PNPP, 100 mM acetate pH 5, 0.2 mg/ml BSA, 5 mM DTT, 30°

T1 sequence (P15309 33-386): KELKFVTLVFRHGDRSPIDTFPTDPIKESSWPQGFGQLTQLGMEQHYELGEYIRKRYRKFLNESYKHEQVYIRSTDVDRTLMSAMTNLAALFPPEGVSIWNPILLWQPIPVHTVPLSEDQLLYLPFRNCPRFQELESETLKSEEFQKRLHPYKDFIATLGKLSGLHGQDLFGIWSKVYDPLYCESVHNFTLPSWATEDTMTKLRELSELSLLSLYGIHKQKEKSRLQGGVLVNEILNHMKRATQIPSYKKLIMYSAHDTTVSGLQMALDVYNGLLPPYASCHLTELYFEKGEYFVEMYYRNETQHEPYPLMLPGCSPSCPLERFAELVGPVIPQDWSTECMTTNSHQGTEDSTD
T2 sequence (P05187 23-506 limits assumed): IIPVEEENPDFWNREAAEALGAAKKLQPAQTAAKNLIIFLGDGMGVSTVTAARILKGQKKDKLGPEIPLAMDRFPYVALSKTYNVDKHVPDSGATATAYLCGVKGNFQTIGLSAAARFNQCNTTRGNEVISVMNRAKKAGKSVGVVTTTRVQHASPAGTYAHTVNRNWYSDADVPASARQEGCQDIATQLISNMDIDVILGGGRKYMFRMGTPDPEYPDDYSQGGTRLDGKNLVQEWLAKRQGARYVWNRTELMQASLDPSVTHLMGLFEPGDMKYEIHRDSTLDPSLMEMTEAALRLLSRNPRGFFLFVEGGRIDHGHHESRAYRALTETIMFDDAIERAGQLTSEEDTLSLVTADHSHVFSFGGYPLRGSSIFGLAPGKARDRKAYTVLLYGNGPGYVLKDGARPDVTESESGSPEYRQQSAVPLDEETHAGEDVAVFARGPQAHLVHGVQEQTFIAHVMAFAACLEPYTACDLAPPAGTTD

## N[C@@H](Cc1ccc(OP(=O)(O)O)cc1)C(=O)O [p-tyrosine, phosphotyrosine]
[1]
  inhibition at 10000 µM: 24.4%
[2]
  inhibition at 10000 µM: 85.6%
[3]; [5]
  % change of activity: -21.6%
[3]; concentration not given
  effect on PNPP phosphatase activity: slightly inhibited
[4]; compound at 10 mM
  inhibition of 32P-Tyr-angiotensin II phosphatase activity: 11.5%

## O=C(O)CN(CCN(CC(=O)O)CC(=O)O)CC(=O)O [EDTA, Ethylene diamine tetraacetate]
[1]
  effect on PNPP phosphatase activity: not affected
[1]; [6]
  inhibition at 20000 µM: 2.2%
[2]; [7]
  inhibition at 20000 µM: 94%
[3]
  stimulation of PNPP phosphatase activity: 79%
[3]; purified phosphotyrosyl protein phosphatase, pH 5, 20000 µM
  % change of activity: +78.9%
[4]
  stimulation of 32P-Tyr-angiotensin II phosphatase activity: 29.8%

## N[C@@H](COP(=O)(O)O)C(=O)O [p-serine, phosphoserine]
[1]
  inhibition at 10000 µM: 19%
[1]; concentration not given
  effect on PNPP phosphatase activity: slightly inhibited
[2]
  inhibition at 10000 µM: 92.6%
[3]; [5]
  % change of activity: +73.4%
[3]; text summary of Table I, phosphoserine 10 mM per table
  stimulation of PNPP phosphatase activity: 73%
[4]; compound at 10 mM
  stimulation of 32P-Tyr-angiotensin II phosphatase activity: 4.3%

## O=C(O)[C@H](O)[C@@H](O)C(=O)O [L-tartrate]
[1]; [6]
  inhibition at 5000 µM: 97.6%
[2]; [7]
  inhibition at 5000 µM: 10.4%
[3]
  effect on PNPP phosphatase activity: nearly completely inhibited
[3]; purified phosphotyrosyl protein phosphatase, pH 5, 5000 µM
  % change of activity: -98.1%
[4]
  inhibition of 32P-Tyr-angiotensin II phosphatase activity: 27.6%

## [O]=[V]([O-])([O-])[O-] [vanadate]
[1]
  % change of activity: -87.8%
[2]
  % change of activity: -18.3%
[3]; [8]
  % change of activity: -38.2%
[3]; compound at 100 μM
  effect on PNPP phosphatase activity: nearly completely inhibited
[4]; compound at 10 μM
  inhibition of 32P-Tyr-angiotensin II phosphatase activity: 46.4%

## molybdate
[1]
  % change of activity: -95.0%
[2]
  % change of activity: 0%
[3]; compound at 10 μM
  effect on PNPP phosphatase activity: nearly completely inhibited
[3]; [8]
  % change of activity: -96.4%
[4]; compound at 10 μM
  inhibition of 32P-Tyr-angiotensin II phosphatase activity: 20.8%
